Experimental data as given in patent US20210189367A1, “Inducible Cell Receptors for Cell-Based Therapeutics” (Senti Biosciences, Inc., priority 2017, published 2021).

How the values were obtained:
Format in all cases: cell-based, human
[1] = tested on: Jurkat cells transduced with an anti-Her2 CAR fused to a self-excising degron; assay: T cell activation (CD69) of anti-Her2 CAR-degron Jurkat cells on recombinant Her2; settings: 1 μM ASV 2 days, then recombinant Her2-coated plates overnight, even at high Her2 (10 μg/mL)
Procedure: The function of an anti-Her2 CAR fused to a self-excising degron in T cells was tested in vitro. Jurkat cells (an immortalized human T cell line) were transduced with an anti-Her2 CAR fused to a self-excising degron (SEQ ID NO: 4). These cells were incubated in the presence (1 μM ASV) or absence of the ASV protease inhibitor for 2 days, then subsequently placed on tissue culture plates coated with recombinant Her2 (low=2.5 μg/mL; high=10 μg/mL). Following overnight incubation, the ant-Her2 CAR T cells were stained with an anti-CD69 fluorescent antibody, and the mean fluorescence of each cell population was measured using flow cytometry. CD69 was used as a T-cell activation marker.

CAR [2] = assay: Switchable expression of CAR by application of ASV (YFP, flow cytometry), CAR T cells
Text: The first fusion protein (left) comprises an extracellular protein binding domain fused to a myc tag and three intracellular signaling domains fused to YFP. The second fusion protein (middle; “CAR-SMASh”) further comprises a Hepatitis C (HCV) NS4A-NS4B protease cleavage site, a HCV NS3 protease domain, and a degron derived from the HCV NS4A protein. The CAR-SMASh, therefore, expresses CAR, but induces degradation of CAR in the presence of ASV. The third fusion protein (right; “CAR-SMASh[GGS]”) is a CAR-SMASh mutant lacking the NS4 degron.
(§1) Human total pan T cells were isolated from PBMC donors by magnetic-assisted cell sorting using StemCell Technologies Total Pan T Cell Isolation Kit and stimulated with anti-CD3/28 Dynabeads at a 1:3 ratio (T cells:Dynabeads), 10^6 T cells with 3×10^Dynabeads, in CTS OpTmizer media with CTS Serum Replacement and recombinant human IL-2 [100 U/ml]. One day later T cells were then transduced with lentivirus carrying a CAR comprising anti-HER2 or anti-CD19 scFv. Specifically, lentivirus encoding CAR, CAR-SMASh and CAR-SMASh[GGS] comprising anti-HER2 or anti-CD19 scFv was transduced. CAR-T cells were then split into a larger well with fresh media added. On Day 5 CAR-T cells were exposed to ASV [2 μM] and then analyzed by flow cytometry to measure YFP expression at various time points, including on day 6 (FIG. 13) and on day 7 (FIG. 14).

CAR [3] = assay: Switchable expression of CAR by removal of ASV (YFP, flow cytometry), CAR T cells; settings: T cells transduced with CAR (FIG. 16A)
Text: as §1, with “3×10^6 Dynabeads,” for “3×10^Dynabeads,”, “for 2 days, washed 2 times, then re-cultured in media without ASV” for “[2 μM]”, “were acquired” for “analyzed”, “cytometry” for “cytometry to measure YFP expression”, “points” for “points, including on day 6 (FIG. 13)”, “YFP expression was measured.” for “on day 7 (FIG. 14).”

[4] = tested on: CAR-T cells co-cultured with target HER2+ SKOV3 tumor cells; assay: Cytokine production by CAR-T cells co-cultured with target tumor cells, Luminex multi-cytokine array; settings: CAR-SMASh T cells, ASV 2 μM, E:T 10:1
Text: Human […] pan T cells were isolated from PBMC donors by magnetic-assisted cell sorting using StemCell Technologies Total Pan T Cell Isolation Kit and stimulated with anti-CD3/28 Dynabeads at a 1:3 ratio (T cells:Dynabeads), 10^6 T cells with 3×10^6 Dynabeads, in CTS OpTmizer media with CTS Serum Replacement and recombinant human IL-2 [100 U/ml]. 1 day later T cells were then transduced with lentivirus carrying anti-HER2 scFv CAR-SMASh designs. CAR-T cells were then split into a larger well with fresh media added. On Day 6 CAR-T cells were treated with ASV [2 μM] for 2 days. On Day 8 CAR-T cells were washed, replenished with ASV, and co-cultured with target HER2+ SKOV3 tumor cells at (10:1) effector-to-target (E:T) ratio, incubated overnight, and supernatants collected the next day. Cytokines were measured by Luminex multi-cytokine array using a Luminex MagPix (Sigma Millipore).

C=C[C@@H]1C[C@]1(NC(=O)[C@@H]1C[C@@H](Oc2ncc(OC)c3ccc(Cl)cc23)CN1C(=O)[C@@H](NC(=O)OC(C)(C)C)C(C)(C)C)C(=O)NS(=O)(=O)C1CC1 [ASV, Asunaprevir]
cells activated (CD69) [1]: less than 25% | CAR expression (percentage YFP+ and YFP MFI) (CAR [2]; CAR T cells, ASV 2 μM, day 6 (FIG. 13)): no effect | CAR expression (percentage YFP+) over time after addition of ASV (CAR [2]; T cells expressing CAR (FIG. 15A)): no effect | reversible effects on CAR expression (percentage YFP+) after removal of ASV (CAR [3]): not observed | IFN-gamma production ([4]; overnight (FIG. 19A)): decreased production | IL-lalpha production ([4]; overnight (FIG. 19B)): decreased production | IL-6 production ([4]; overnight (FIG. 19C)): decreased production
